Experiments:
[1] = system: PGD2-induced eosinophil shape change; experiment: Human whole blood eosinophil shape change assay (PGD2-induced); format: cell-based; conditions: 10 nM PGD2, read-out: IC50 for the effect on 10 nM PGD2-induced eosinophil shape change in whole blood
Procedure: Compounds 1-6 were assayed for their effect on PGD2 induced eosinophil shape change.
Compounds (1 μl, 200× final concentration) were added directly to 200 μl whole blood, mixed well and incubated for 15 min, 37° C., 5% CO2. After this time, cell shape was fixed by addition of 300 μl Cytofix™ buffer (BD Biosciences), 15 min on ice. 10 ml RBC lysis buffer was added to the fixed cells, incubated 5 min, at room temperature and centrifuged, 300×g for 5 min. Supernatant (containing lysed red cells) was removed and the lysis step was repeated. Leukocytes were resuspended in 250 μl RPMI/10% FCS and shape change analysed by FACS. Eosinophils were gated out based on their autofluorescence and 2000 eosinophil events were counted per sample. Data were analysed in triplicate.

CRTH2 receptor = biological target: T1, CRTH2 receptor (Homo sapiens, UniProt Q9Y5Y4); experiment: Radioligand binding assay ([3H]PGD2) on CHO/CRTH2 cell membranes; conditions: [3H]PGD2 binding
T1 construct: expressed in transfected cells; host or cells: Chinese Hamster Ovary (CHO) cells, membranes
T1 sequence (Q9Y5Y4 1-395): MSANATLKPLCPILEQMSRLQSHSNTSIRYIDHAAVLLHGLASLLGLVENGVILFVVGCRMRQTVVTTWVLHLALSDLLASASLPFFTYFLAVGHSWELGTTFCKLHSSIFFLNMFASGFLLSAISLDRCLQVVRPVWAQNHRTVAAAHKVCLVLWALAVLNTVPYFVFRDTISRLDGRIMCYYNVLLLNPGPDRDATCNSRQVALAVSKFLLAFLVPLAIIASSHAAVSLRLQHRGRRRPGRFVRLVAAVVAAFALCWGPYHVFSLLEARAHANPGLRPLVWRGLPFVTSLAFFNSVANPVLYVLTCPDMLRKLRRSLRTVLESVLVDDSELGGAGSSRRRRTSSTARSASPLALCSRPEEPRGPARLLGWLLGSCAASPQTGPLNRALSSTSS
Procedure: Chinese Hamster Ovary cells were transfected with CRTH2 or DP receptors (CHO/CRTH2 and CHO/DP) and were maintained in culture in a humidified atmosphere at 37° C. (5% CO2) in Minimum Essential Medium (MEM) supplemented with 10% foetal bovine serum, 2 mM glutamine, and 1 mg ml^−1 active G418. The cells were passaged every 2-3 days. For radioligand binding assay, cells were prepared in triple-layer flasks or in 175 cm^2 square flasks (for membrane preparation).
Membranes were prepared either from CHO/CRTH2 and CHO/DP cells, or from platelets (as a source of TP receptors). CHO cells grown to confluency were washed with PBS and detached using a Versene solution (15 ml per flask). When the cells were grown in 175 cm^2 square flask, they were collected by scrapping in PBS. The cell suspensions were centrifuged (1,700 rpm, 10 min, 4° C.) and resuspended in 15 ml of buffer (1× HBSS, supplemented with 10 mM HEPES, pH 7.3). Cell suspensions were then homogenised using an Ultra Turrax at setting 4-6 for 20 s. The homogenate was centrifuged at 1,700 rpm for 10 min and the supernatant was collected and centrifuged at 20,000 rpm for 1 h at 4° C. The resulting pellet was resuspended in buffer and stored at −80° C. in aliquots of 200-500 μl. The protein concentration was determined by the method of Bradford (1976), using bovine serum albumin as standard. The platelets were washed by centrifugation at 600×g for 10 min and resuspended in ice-cold assay buffer (10 mM Tris-HCl, pH 7.4, 5 mM Glucose, 120 mM NaCl, 10 μM indomethacin) and directly centrifuged at 20,000 rpm for 30 min at 4° C. The resulting pellet was treated as described above.
[^3H]PGD2 (160 Ci/mmol) binding experiments were performed on membranes prepared as described above. Assays were performed in a final volume of 100 μl of buffer (1× HBSS/HEPES 10 mM, pH 7.3). Cell membranes (15 μg) were preincubated at room temperature with varying concentration of competing ligand for 15 min. [^3H]PGD2 was then added and the incubation continued for a further one hour at room temperature. The reaction was terminated by the addition of 200 μl ice-cold assay buffer to each well, followed by rapid filtration through Whatman GF/B glass fibre filters using a Unifilter Cell harvester (PerkinElmer Life Sciences) and six washes of 300 μl of ice-cold buffer. The Unifilter plates were dried at room temperature for at least 1 h and the radioactivity retained on the filters was determined on a Beta Trilux counter (PerkinElmer Life Sciences), following addition of 40 μl of Optiphase Hi-Safe 3 (Wallac) liquid scintillation. Non specific binding was defined in the presence of 10 μM unlabelled PGD2. Assays were performed in duplicate.

IC50 [1] [nM]	Ki (CRTH2 receptor) [nM]	Compound
12	3	Cc1c(Cc2ccccc2S(=O)(=O)Cc2ccccc2)c2cc(F)ccc2n1CC(=O)O [Compound 5, 2-(3-(2-(Benzylsulfonyl)benzyl)-5-fluoro-2-methyl-1H-indol-1-yl)acetic acid]
3	3	Cc1c(Cc2ccc(S(=O)(=O)Cc3ccc(F)cc3)cc2)c2cc(F)ccc2n1CC(=O)O [Compound 6, 2-(3-(4-(4-Fluorobenzylsulfonyl)benzyl)-5-fluoro-2-methyl-1H-indol-1-yl)acetic acid]

Further lines, the molecule ahead of its results:

Compound	IC50 [1] [nM]	Ki (CRTH2 receptor) [nM]
Cc1c(Cc2ccc(S(=O)(=O)Cc3ccccc3)cc2)c2cc(F)ccc2n1CC(=O)O [Compound 1, 2-(3-(4-(Benzylsulfonyl)benzyl)-5-fluoro-2-methyl-1H-indol-1-yl)acetic acid]	1	1
Cc1c(Cc2ccc(S(=O)(=O)Cc3ccc(Cl)cc3)cc2)c2cc(F)ccc2n1CC(=O)O [Compound 2, 2-(3-(4-(4-Chlorobenzylsulfonyl)benzyl)-5-fluoro-2-methyl-1H-indol-1-yl)acetic acid]		5
Cc1c(Cc2cccc(S(=O)(=O)Cc3ccccc3)c2)c2cc(F)ccc2n1CC(=O)O [Compound 3, 2-(3-(3-(Benzylsulfonyl)benzyl)-5-fluoro-2-methyl-1H-indol-1-yl)acetic acid]	77	3
Cc1c(Cc2cccc(S(=O)(=O)Cc3ccc(F)cc3)c2)c2cc(F)ccc2n1CC(=O)O [Compound 4, 2-(5-Fluoro-3-(3-(4-fluorobenzylsulfonyl)benzyl)-2-methyl-1H-indol-1-yl)acetic acid]		1

From patent US20100022613A1, “Compounds Having CRTH2 Antagonist Activity” (Oxagen Limited, priority 2008, published 2010)
